Assay results taken from patent publication US20150196033A1, “PESTICIDAL COMPOSITIONS AND PROCESSES RELATED THERETO” (priority 2012, published 2015).

How the values were obtained:
Assay type in all cases: in vivo
[1] = test system: Corn Earworm (CEW) (Helicoverpa zea); assay: Bioassay on Corn Earworm (CEW), 128-well diet tray assay; conditions: Helicoverpa zea, 168 h, second instar larvae, five to seven days; for mortality at 50 µg/cm2: 50 μg/cm2 on artificial diet, read-out: Rating CEW (% Control (or Mortality)); for mortality at 0.5 µg/cm2: 0.5 μg/cm2 on artificial diet, read-out: Rating CEW (% Control (or Mortality)), *Tested at 0.5 μg/cm2
Outline: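 Helicoverpa zea larvae in 128-well diet trays, held at 25 °C, 14:10 light-dark for five to seven days. Percent mortality scored per well and averaged over eight wells.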

[2] = test system: Yellow Fever Mosquito (YFM) (Aedes aegypti); conditions: about 1 day-old larvae, scored on mortality after 3 days
Experimental: Certain molecules disclosed in this document were tested against YFM using procedures described in the following paragraph. In the reporting of the results, the “YFM Rating Table” was used (See Table Section).
Master plates containing 400 μg of a molecule dissolved in 100 μL of dimethyl sulfoxide (DMSO) (equivalent to a 4000 ppm solution) are used. A master plate of assembled molecules contains 15 μL per well. To this plate, 135 μL of a 90:10 water:acetone mixture is added to each well. A robot (Biomek® NXP Laboratory Automation Workstation) is programmed to dispense 15 μL aspirations from the master plate into an empty 96-well shallow plate (“daughter” plate). There are 6 reps (“daughter” plates) created per master. The created daughter plates are then immediately infested with YFM larvae.
The day before plates are to be treated, mosquito eggs are placed in Millipore water containing liver powder to begin hatching (4 g. into 400 ml). After the daughter plates are created using the robot, they are infested with 220 μL of the liver powder/larval mosquito mixture (about 1 day-old larvae). After plates are infested with mosquito larvae, a non-evaporative lid is used to cover the plate to reduce drying. Plates are held at room temperature for 3 days prior to grading. After 3 days, each well is observed and scored based on mortality.

[3] = test system: Beet Armyworm (BAW) (Spodoptera exigua); assay: Bioassay on Beet Armyworm (BAW), 128-well diet tray assay; conditions: Spodoptera exigua, 168 h; 50 μg/cm2 on artificial diet, second instar larvae, five to seven days; read-out: Rating BAW (% Control (or Mortality))
Outline: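 Spodoptera exigua larvae on diet trays held 5–7 days at 25 °C, 14:10 light-dark. Percent mortality scored per well and averaged over eight wells.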

[4] = test system: Green Peach Aphid (GPA) (Myzus persicae); assay: Bioassay on Green Peach Aphid (GPA), foliar spray on cabbage seedlings; conditions: Myzus persicae, 72 h; 200 ppm foliar spray on cabbage seedlings, graded after three days, Abbott corrected % control; read-out: Rating GPA (% Control (or Mortality))
Experimental: Certain molecules disclosed in this document were tested against GPA using procedures described in the following example. In the reporting of the results, the “GPA Rating Table” was used (See Table Section).
Cabbage seedlings grown in 3-inch pots, with 2-3 small (3-5 cm) true leaves, were used as test substrate. The seedlings were infested with 20-50 GPA (wingless adult and nymph stages) one day prior to chemical application. Four pots with individual seedlings were used for each treatment. Test compounds (2 mg) were dissolved in 2 mL of acetone/MeOH (1:1) solvent, forming stock solutions of 1000 ppm test compound. The stock solutions were diluted 5× with 0.025% Tween 20 in H2O to obtain the solution at 200 ppm test compound. A hand-held aspirator-type sprayer was used for spraying a solution to both sides of […] leaves until runoff. Reference plants (solvent check) were sprayed with the diluent only containing 20% by volume of acetone/MeOH (1:1) solvent. Treated plants were held in a holding room for three days at approximately 25° C. and ambient relative humidity (RH) prior to grading. Evaluation was conducted by counting the number of live aphids per plant under a microscope. Percent Control was measured by using Abbott's correction formula (W.S. Abbott, “A Method of Computing the Effectiveness of an Insecticide” J. Econ. Entomol. 18 (1925), pp. 265-267) as follows.
Corrected % Control=100*(X−Y)/X • where • X=No. of live aphids on solvent check plants and • Y=No. of live aphids on treated plants

Row | SMILES | mortality at 50 µg/cm2 [1] | Rating YFM (% Control (or Mortality)) [2] | mortality at 50 µg/cm2 [3] | mortality at 200 ppm [4] | mortality at 0.5 µg/cm2 [1]
1 | CCC(C)c1ccccc1N1C(=O)CS/C1=N\C(=O)Nc1ccc(-c2ncn(-c3ccc(OC(F)(F)F)cc3)n2)cc1 (stereo not shown) [Molecule A18, (Z)-1-(3-(2-(sec-butyl)phenyl)-4-oxothiazolidin-2-ylidene)-3-(4-(1-(4-(trifluoromethoxy)phenyl)-1H-1,2,4-triazol-3-yl)phenyl)urea] | 50 to 100% | A (80-100) | 50 to 100% | – | –
2 | Cc1cccc(C)c1N1C(=O)C(C)(C)S/C1=N\C(=O)Nc1ccc(-c2ncn(-c3ccc(OC(F)(F)F)cc3)n2)cc1 [Molecule A126] | 50 to 100% | A (80-100) | 50 to 100% | 0% | –
3 | Cc1cccc(C)c1N/C(S)=C(\C#N)C(=O)Nc1ccc(-c2ncn(-c3ccc(OC(F)(F)F)cc3)n2)cc1 [Molecule A28, (Z)-2-Cyano-3-mercapto-3-((2,6-dimethylphenyl)amino)-N-(4-(1-(4-(trifluoromethoxy)phenyl)-1H-1,2,4-triazol-3-yl)phenyl)acrylamide] | 50 to 100% | D (No activity noticed in this bioassay) | 0% | – | –
4 | CCc1ccccc1N1C(=O)CS/C1=N\C(=O)Nc1ccc(-c2ncn(-c3ccc(OC(F)(F)F)cc3)n2)cc1 [Molecule A35] | 50 to 100% | A (80-100) | 50 to 100% | 0% | –
5 | COc1ccc(N2C(=O)CS/C2=N\C(=O)Nc2ccc(-c3ncn(-c4ccc(OC(F)(F)F)cc4)n3)cc2)c(C)c1 [Molecule A110] | – | A (80-100) | 50 to 100% | 0% | 50 to 100%
6 | CC(C)c1cccc(Cl)c1N1C(=O)CS/C1=N\C(=O)Nc1ccc(-c2ncn(-c3ccc(OC(F)(F)F)cc3)n2)cc1 [Molecule A85] | – | A (80-100) | 50 to 100% | – | 50 to 100%
7 | COc1cc(C)c(-n2c(C)cs/c2=N\C(=O)Nc2ccc(-c3ncn(-c4ccc(OC(F)(F)F)cc4)n3)cc2)c(C)c1 [Molecule A44] | 50 to 100% | A (80-100) | 50 to 100% | 0 to 80% | –
8 | Cc1ccccc1N1C(=O)CS/C1=N\C(=O)Nc1ccc(-c2ncn(-c3ccc(OC(F)(F)F)cc3)n2)cc1 [Molecule A65] | – | A (80-100) | 50 to 100% | – | 50 to 100%
9 | Cc1cc(-c2ncn(-c3ccc(OC(F)(F)F)cc3)n2)ccc1NC(=O)/N=C(\S)Nc1ccccc1C(C)C [Molecule A122] | – | A (80-100) | 50 to 100% | – | 50 to 100%
10 | COc1ccc(N/C(O)=C/C(=O)Nc2ccc(-c3ncn(-c4ccc(OC(F)(F)F)cc4)n3)cc2)c(C(C)C)c1 [Molecule A34, (Z)-3-hydroxy-3-(2-isopropyl-4-methoxyphenylamino)-N-(4-(1-(4-(trifluoromethoxy)phenyl)-1H-1,2,4-triazol-3-yl)phenyl)acrylamide] | 50 to 100% | A (80-100) | 50 to 100% | 0% | –
11 | Cc1cccc(C)c1N/C(=N/C(=O)Nc1ccc(-c2ncn(-c3ccc(OC(F)(F)F)cc3)n2)cc1)SCOC(=O)C(C)C [Molecule A4, (E)-(N′-(2,6-Dimethylphenyl)-N-(4-(1-(4-(trifluoromethyoxy)phenyl)-1H-1,2,4-triazol-3-yl)phenylcarbamoyl)carbamimidoylthio)methyl isobutyrate] | 50 to 100% | A (80-100) | 50 to 100% | 0 to 80% | –
12 | Cc1cccc(C)c1N/C(=N/C(=O)Nc1ccc(-c2ncn(-c3ccc(C(F)(F)F)cc3)n2)cc1)SCOC(=O)C(C)C [Molecule A3, (E)-(N′-(2,6-Dimethylphenyl)-N-(4-(1-(4-(trifluoromethyl)phenyl)-1H-1,2,4-triazol-3-yl)phenylcarbamoyl)carbamimidoylthio) methyl isobutyrate] | 50 to 100% | A (80-100) | 50 to 100% | 0% | –
13 | Cc1cc(-c2ncn(-c3ccc(OC(F)(F)F)cc3)n2)ccc1NC(=O)/N=C1\SCC(=O)N1c1ccccc1C(C)C [Molecule A123, (Z)-1-(3-(2-isopropylphenyl)-4-oxothiazolidin-2-ylidene)-3-(2-methyl-4-(1-(4-(trifluoromethoxy)phenyl)-1H-1,2,4-triazol-3-yl)phenyl)urea] | – | A (80-100) | 50 to 100% | – | 50 to 100%
14 | CCc1ccccc1N/C(S)=N/C(=O)Nc1ccc(-c2ncn(-c3ccc(OC(F)(F)F)cc3)n2)cc1 [Molecule A46] | 50 to 100% | A (80-100) | 50 to 100% | 0 to 80% | –
15 | Cc1ccccc1N/C(S)=N/C(=O)Nc1ccc(-c2ncn(-c3ccc(OC(F)(F)F)cc3)n2)cc1 [Molecule A80] | 50 to 100% | B (More than 0-Less than 80) | 50 to 100% | – | –
16 | Cc1cccc(C)c1N1C(=O)CS/C1=N\C(=O)Nc1ccc(-c2ncn(-c3ccc(OC(F)(F)F)cc3)n2)cc1 [Molecule A14, (Z)-1-(3-(2,6-dimethylphenyl)-4-oxothiazolidin-2-ylidene)-3-(4-(1-(4-(trifluoromethoxy)phenyl)-1H-1,2,4-triazol-3-yl)phenyl)urea] | 50 to 100% | A (80-100) | 50 to 100% | 0 to 80% | –
17 | COc1ccc(N/C(=N\C(=O)Nc2ccc(-c3ncn(-c4ccc(OC(F)(F)F)cc4)n3)cc2)SCOC(=O)C(C)C)cc1 [Molecule A62] | 50 to 100% | A (80-100) | 50 to 100% | 0% | –
18 | Cc1ccc(N2C(=O)CS/C2=N\C(=O)Nc2ccc(-c3ncn(-c4ccc(OC(F)(F)F)cc4)n3)cc2)c(Cl)c1 [Molecule A77] | – | B (More than 0-Less than 80) | 50 to 100% | – | 50 to 100%
19 | CCCc1ccccc1N1C(=O)CS/C1=N\C(=O)Nc1ccc(-c2ncn(-c3ccc(OC(F)(F)F)cc3)n2)cc1 [Molecule A69] | – | A (80-100) | 50 to 100% | – | 50 to 100%
